In the supplement of paper PMC10307832:

Experiments:
Assay in all cases: relative viability (nuclei count vs DMSO), 5 days (fraction); higher = more cells survive
LXF-289 = test system: LXF-289
Procedure, shortened: (§1)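 Values are medians from duplicate plates. Each reflects relative viability, defined as the nuclei count of treated wells over that of vehicle wells. Lung cancer cell lines in 1536-well plates were pin-tool dosed one day after seeding with one drug alone or with a fixed anchor-drug dose plus five library-drug doses (not always all listed) in √10 steps, then fixed, stained and imaged at 4× after 5 days.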

HCC-44 = test system: HCC-44
Procedure, shortened: as §1

NCI-H1755 = test system: NCI-H1755
Procedure, shortened: as §1

HCC-827 = test system: HCC-827
Procedure, shortened: as §1

NCI-H1792 = test system: NCI-H1792
Procedure, shortened: as §1

SK-LU-1 = test system: SK-LU-1
Procedure, shortened: as §1

NCI-H1666 = test system: NCI-H1666
Procedure, shortened: as §1

NCI-H3122 = test system: NCI-H3122
Procedure, shortened: as §1

NCI-H2347 = test system: NCI-H2347
Procedure, shortened: as §1

LU99A = test system: LU99A
Procedure, shortened: as §1

NCI-H520 = test system: NCI-H520
Procedure, shortened: as §1

ChaGo-K-1 = test system: ChaGo-K-1
Procedure, shortened: as §1

NCI-H2126 = test system: NCI-H2126
Procedure, shortened: as §1

NCI-H1944 = test system: NCI-H1944
Procedure, shortened: as §1

NCI-H358 = test system: NCI-H358
Procedure, shortened: as §1

CAL-12T = test system: CAL-12T
Procedure, shortened: as §1

ABC-1 = test system: ABC-1
Procedure, shortened: as §1

RERF-LC-KJ = test system: RERF-LC-KJ
Procedure, shortened: as §1

LCLC-103H = test system: LCLC-103H
Procedure, shortened: as §1

NCI-H322M = test system: NCI-H322M
Procedure, shortened: as §1

## CCNC(=O)c1noc(-c2cc(C(C)C)c(O)cc2O)c1-c1ccc(CN2CCOCC2)cc1 [Luminespib] + C[C@@H](Oc1cc(-c2cnn(C3CCNCC3)c2)cnc1N)c1c(Cl)ccc(F)c1Cl [Crizotinib] (partner 1 µM)
LXF-289; first compound 0.002 µM
  relative viability: 0.825
LXF-289; first compound 0.006325 µM
  relative viability: 0.79
LXF-289; first compound 0.02 µM
  relative viability: 0.894
LXF-289; first compound 0.06325 µM
  relative viability: 0.459
LXF-289; first compound 0.2 µM
  relative viability: 0.123
HCC-44; first compound 0.002 µM
  relative viability: 0.843
HCC-44; first compound 0.006325 µM
  relative viability: 0.768
HCC-44; first compound 0.02 µM
  relative viability: 1
HCC-44; first compound 0.06325 µM
  relative viability: 0.12
HCC-44; first compound 0.2 µM
  relative viability: 0.091
NCI-H1755; first compound 0.002 µM
  relative viability: 0.878
NCI-H1755; first compound 0.006325 µM
  relative viability: 0.882
NCI-H1755; first compound 0.02 µM
  relative viability: 0.938
NCI-H1755; first compound 0.06325 µM
  relative viability: 0.756
NCI-H1755; first compound 0.2 µM
  relative viability: 0.315
HCC-827; first compound 0.002 µM
  relative viability: 0.944
HCC-827; first compound 0.006325 µM
  relative viability: 0.899
HCC-827; first compound 0.02 µM
  relative viability: 0.887
HCC-827; first compound 0.06325 µM
  relative viability: 0.952
HCC-827; first compound 0.2 µM
  relative viability: 0.879
NCI-H1792; first compound 0.002 µM
  relative viability: 0.981
NCI-H1792; first compound 0.006325 µM
  relative viability: 0.906
NCI-H1792; first compound 0.02 µM
  relative viability: 0.955
NCI-H1792; first compound 0.06325 µM
  relative viability: 0.435
NCI-H1792; first compound 0.2 µM
  relative viability: 0.119
SK-LU-1; first compound 0.002 µM
  relative viability: 0.992
SK-LU-1; first compound 0.006325 µM
  relative viability: 0.708
SK-LU-1; first compound 0.02 µM
  relative viability: 0.574
SK-LU-1; first compound 0.06325 µM
  relative viability: 0.176
SK-LU-1; first compound 0.2 µM
  relative viability: 0.155
NCI-H1666; first compound 0.002 µM
  relative viability: 1.04
NCI-H1666; first compound 0.006325 µM
  relative viability: 0.929
NCI-H1666; first compound 0.02 µM
  relative viability: 1.13
NCI-H1666; first compound 0.06325 µM
  relative viability: 1
NCI-H1666; first compound 0.2 µM
  relative viability: 0.756
NCI-H3122; first compound 0.002 µM
  relative viability: 0.278
NCI-H3122; first compound 0.006325 µM
  relative viability: 0.267
NCI-H3122; first compound 0.02 µM
  relative viability: 0.222
NCI-H3122; first compound 0.06325 µM
  relative viability: 0.181
NCI-H3122; first compound 0.2 µM
  relative viability: 0.165
NCI-H2347; first compound 0.002 µM
  relative viability: 0.701
NCI-H2347; first compound 0.02 µM
  relative viability: 0.625
NCI-H2347; first compound 0.06325 µM
  relative viability: 0.315
NCI-H2347; first compound 0.2 µM
  relative viability: 0.311
LU99A; first compound 0.002 µM
  relative viability: 0.606
LU99A; first compound 0.006325 µM
  relative viability: 0.628
LU99A; first compound 0.02 µM
  relative viability: 0.343
LU99A; first compound 0.06325 µM
  relative viability: 0.127
LU99A; first compound 0.2 µM
  relative viability: 0.112
NCI-H520; first compound 0.002 µM
  relative viability: 0.831
NCI-H520; first compound 0.006325 µM
  relative viability: 0.976
NCI-H520; first compound 0.02 µM
  relative viability: 0.845
NCI-H520; first compound 0.06325 µM
  relative viability: 0.0957
NCI-H520; first compound 0.2 µM
  relative viability: 0.0995
ChaGo-K-1; first compound 0.002 µM
  relative viability: 1.23
ChaGo-K-1; first compound 0.02 µM
  relative viability: 1.01
ChaGo-K-1; first compound 0.06325 µM
  relative viability: 0.562
ChaGo-K-1; first compound 0.2 µM
  relative viability: 0.301
NCI-H2126; first compound 0.002 µM
  relative viability: 1.08
NCI-H2126; first compound 0.006325 µM
  relative viability: 0.97
NCI-H2126; first compound 0.02 µM
  relative viability: 0.84
NCI-H2126; first compound 0.06325 µM
  relative viability: 0.993
NCI-H2126; first compound 0.2 µM
  relative viability: 0.951
NCI-H1944; first compound 0.002 µM
  relative viability: 1.08
NCI-H1944; first compound 0.006325 µM
  relative viability: 1.04
NCI-H1944; first compound 0.02 µM
  relative viability: 0.775
NCI-H1944; first compound 0.06325 µM
  relative viability: 0.955
NCI-H1944; first compound 0.2 µM
  relative viability: 0.97
NCI-H358; first compound 0.002 µM
  relative viability: 0.699
NCI-H358; first compound 0.006325 µM
  relative viability: 0.647
NCI-H358; first compound 0.02 µM
  relative viability: 0.608
NCI-H358; first compound 0.06325 µM
  relative viability: 0.0797
NCI-H358; first compound 0.2 µM
  relative viability: 0.0988
CAL-12T; first compound 0.002 µM
  relative viability: 0.7
CAL-12T; first compound 0.006325 µM
  relative viability: 0.635
CAL-12T; first compound 0.02 µM
  relative viability: 0.636
CAL-12T; first compound 0.06325 µM
  relative viability: 0.06
CAL-12T; first compound 0.2 µM
  relative viability: 0.0967
ABC-1; first compound 0.002 µM
  relative viability: 1.55
ABC-1; first compound 0.006325 µM
  relative viability: 0.877
ABC-1; first compound 0.02 µM
  relative viability: 1.06
ABC-1; first compound 0.06325 µM
  relative viability: 0.19
ABC-1; first compound 0.2 µM
  relative viability: 0.18
RERF-LC-KJ; first compound 0.002 µM
  relative viability: 0.817
RERF-LC-KJ; first compound 0.006325 µM
  relative viability: 0.791
RERF-LC-KJ; first compound 0.02 µM
  relative viability: 0.877
RERF-LC-KJ; first compound 0.06325 µM
  relative viability: 0.948
RERF-LC-KJ; first compound 0.2 µM
  relative viability: 0.223
LCLC-103H; first compound 0.002 µM
  relative viability: 1.02
LCLC-103H; first compound 0.006325 µM
  relative viability: 1.04
LCLC-103H; first compound 0.02 µM
  relative viability: 0.908
LCLC-103H; first compound 0.06325 µM
  relative viability: 1.02
LCLC-103H; first compound 0.2 µM
  relative viability: 1.15
NCI-H322M; first compound 0.002 µM
  relative viability: 0.925
NCI-H322M; first compound 0.006325 µM
  relative viability: 0.924
NCI-H322M; first compound 0.02 µM
  relative viability: 0.718
NCI-H322M; first compound 0.06325 µM
  relative viability: 0.898
NCI-H322M; first compound 0.2 µM
  relative viability: 0.808
